Data published in ChEMBL document CHEMBL1201862, “PubChem BioAssay data set” (2004).
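Tested at 5 concentrations; 48 h exposure; 96-well plates; endpoints linearly interpolated, else capped at highest concentration. The concentration for 50% growth inhibition is given as GI50.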 Calls of active or inactive are those of the source. Rule as the data show it: active = GI50 up to about 1.1 µM and inactive = higher.

Legend:
Experiment in all cases: inhibition of tumour cell growth, NCI panel, 48 h
[1] = tested on: UACC-62
[2] = tested on: A549
[3] = tested on: SR
[4] = tested on: A498
[5] = tested on: TK-10
[6] = tested on: SN12C
[7] = tested on: SK-MEL-28
[8] = tested on: SNB-19
[9] = tested on: NCI-H23
[10] = tested on: HCT-15
[11] = tested on: 786-0
[12] = tested on: M14
[13] = tested on: HCC 2998
[14] = tested on: HL-60
[15] = tested on: NCI-H460
[16] = tested on: OVCAR-8
[17] = tested on: U-251
[18] = tested on: CAKI-1

For CC(=O)OCCOCNC(=S)N/N=C/c1ccc2ccccc2n1, the GI50 [1] was 21.8 µM (inactive), the GI50 [2] was 33 µM (inactive) and the GI50 [3] was 24.8 µM (inactive). The GI50 [4] was > 100 µM (inactive), the GI50 [5] was 69 µM (inactive) and the GI50 [6] was 48 µM (inactive). For the same compound, the GI50 [7] was 70.1 µM (inactive), the GI50 [8] was > 100 µM (inactive) and the GI50 [9] was 73.1 µM (inactive). For the same compound, the GI50 [10] was 29.8 µM, the GI50 [11] was 39.4 µM (inactive) and the GI50 [12] was 32.5 µM (inactive). For the same compound, the GI50 [13] was 31.7 µM (inactive), the GI50 [14] was 36.4 µM (inactive) and the GI50 [15] was 27.5 µM (inactive). For the same compound, the GI50 [16] was 37.1 µM (inactive) and the GI50 [17] was 29.2 µM (inactive).

For COc1ccc(NC(=O)C2C(=O)N(c3ccc(OC)cc3)C(=O)/C2=N\N)cc1 (configuration not stated), the GI50 [1] was > 100 µM (inactive), the GI50 [2] was > 100 µM (inactive) and the GI50 [3] was > 100 µM (inactive). For the same compound, the GI50 [4] was > 100 µM (inactive), the GI50 [5] was > 100 µM (inactive) and the GI50 [6] was > 100 µM (inactive). The GI50 [7] was > 100 µM (inactive), the GI50 [8] was 94.8 µM (inactive) and the GI50 [9] was > 100 µM (inactive). For the same compound, the GI50 [10] was > 100 µM, the GI50 [11] was > 100 µM (inactive) and the GI50 [12] was > 100 µM (inactive). For the same compound, the GI50 [13] was > 100 µM (inactive), the GI50 [14] was > 100 µM (inactive) and the GI50 [15] was > 100 µM (inactive). The GI50 [16] was > 100 µM (inactive) and the GI50 [17] was > 100 µM (inactive).

CSc1ccc(OCC2OC2O)cc1 (configuration not stated) was tested, and the GI50 [1] was 47.9 µM (inactive), the GI50 [2] was 42.3 µM (inactive) and the GI50 [3] was 45.2 µM (inactive). The GI50 [4] was 28.1 µM (inactive), the GI50 [5] was > 50 µM (inactive) and the GI50 [6] was 62.2 µM (inactive). The GI50 [8] was > 92.5 µM (inactive), the GI50 [9] was 42.5 µM (inactive) and the GI50 [10] was 23.5 µM. For the same compound, the GI50 [18] was > 50.9 µM (inactive), the GI50 [11] was 66.4 µM (inactive) and the GI50 [12] was 49.5 µM (inactive). For the same compound, the GI50 [13] was > 86.3 µM (inactive), the GI50 [14] was 27.3 µM (inactive) and the GI50 [15] was 29.4 µM (inactive). For the same compound, the GI50 [16] was 55.6 µM (inactive) and the GI50 [17] was 28.6 µM (inactive).

For O=C1/C(=C/c2ccccc2)CN(C(=O)Oc2ccc(Cl)cc2)C/C1=C\c1ccccc1, the GI50 [1] was 2.31 µM (inactive), the GI50 [2] was 9.33 µM (inactive) and the GI50 [3] was 1.32 µM (inactive). The GI50 [4] was 2.11 µM (inactive), the GI50 [5] was 5.21 µM (inactive) and the GI50 [6] was 1.84 µM (inactive). The GI50 [7] was 2.1 µM (inactive), the GI50 [8] was 3.31 µM (inactive) and the GI50 [9] was 3.22 µM (inactive). For the same compound, the GI50 [10] was 1.17 µM, the GI50 [11] was 1.96 µM (inactive) and the GI50 [12] was 1.53 µM (inactive). For the same compound, the GI50 [13] was 1.51 µM (inactive), the GI50 [14] was 0.871 µM (active) and the GI50 [15] was 2.44 µM (inactive). For the same compound, the GI50 [16] was 1.65 µM (inactive) and the GI50 [17] was 1.53 µM (inactive).

CCN1CCC(O)(/C=C/c2ccc(Cl)cc2)C(C(=O)/C=C/c2ccc(Cl)cc2)C1 (configuration not stated) was tested, and the GI50 [1] was 17.3 µM (inactive), the GI50 [2] was 25.4 µM (inactive) and the GI50 [3] was 34.5 µM (inactive). The GI50 [4] was 17.3 µM (inactive), the GI50 [5] was 31.1 µM (inactive) and the GI50 [6] was > 10 µM (inactive). The GI50 [7] was 21.6 µM (inactive), the GI50 [8] was 71.6 µM (inactive) and the GI50 [9] was 20.2 µM (inactive). For the same compound, the GI50 [10] was 21.7 µM, the GI50 [11] was 20 µM (inactive) and the GI50 [12] was 34.6 µM (inactive). For the same compound, the GI50 [13] was 18.4 µM (inactive), the GI50 [14] was 17.5 µM (inactive) and the GI50 [15] was 28 µM (inactive). For the same compound, the GI50 [16] was 24.4 µM (inactive) and the GI50 [17] was 19 µM (inactive).

With C/C=C(\C)c1cc(O)c(C)c2c1Oc1cc(O)c(Cl)c(C)c1C(=O)O2 the GI50 [2] was 31.6 µM (inactive), the GI50 [3] was 23.8 µM (inactive) and the GI50 [5] was 16.2 µM (inactive). The GI50 [6] was 16.6 µM (inactive), the GI50 [7] was 22.4 µM (inactive) and the GI50 [8] was 17.3 µM (inactive). For the same compound, the GI50 [9] was 18.9 µM (inactive), the GI50 [18] was 27.4 µM (inactive) and the GI50 [11] was 25.6 µM (inactive). The GI50 [12] was 20.1 µM (inactive), the GI50 [13] was 13 µM (inactive) and the GI50 [14] was 36 µM (inactive). The GI50 [15] was 20 µM (inactive), the GI50 [16] was 21.4 µM (inactive) and the GI50 [17] was 23.4 µM (inactive).

In the case of COc1cc2c(c(OC)c1OC)-c1ccc(SC)c(=O)cc1[C@@H](NC(=O)c1ccc(C#N)cc1)CC2, the GI50 [1] is reported as < 0.01 µM (active), the GI50 [2] is reported as < 0.01 µM (active) and the GI50 [3] is reported as < 0.01 µM (active). The GI50 [4] was < 0.01 µM (active), the GI50 [5] was 3.3 µM (inactive) and the GI50 [6] was < 0.01 µM (active). For the same compound, the GI50 [7] was > 79.8 µM (inactive), the GI50 [8] was < 0.01 µM (active) and the GI50 [9] was < 0.01 µM (active). For the same compound, the GI50 [10] was < 0.01 µM, the GI50 [11] was < 0.01 µM (active) and the GI50 [12] was < 0.01 µM (active). For the same compound, the GI50 [13] was < 0.01 µM (active), the GI50 [14] was < 0.01 µM (active) and the GI50 [15] was < 0.01 µM (active). The GI50 [16] was < 0.01 µM (active) and the GI50 [17] was < 0.01 µM (active).
